Measurements from US7842685B2, “S1P1 receptor agonists and use thereof” (Amgen Inc., priority 2008, dated 2010).
Counter-ions that a name gives are not always drawn.

Target: T1, hS1P1 receptor (Homo sapiens, UniProt P21453)
T1 construct: host or cells: U2OS
Experiment: hS1P1 receptor internalization assay (cell imaging-based, hS1P1-eGFP U2OS cells)
Details: U2OS cell line expressing hS1P1-eGFP, compounds incubated at 37° C. for one hour; for Emax: 1 h, efficacy (Max), read-out: hS1P1 Receptor Internalization (biolimaging) Max (%); for EC50: GFP-containing endosomes per cell (ArrayScan), read-out: hS1P1 Receptor Internalization (bioimaging) EC50 IP
Protocol: The activity of compounds of the invention was determined by a cell imaging-based assay measuring the degree of hS1P1 receptor internalization and a Ca^2+ mobilization assay measuring the level of S1P receptor activation. The receptor internalization assay was employed to determine the potency and efficacy of compounds on hS1P1 receptor, while Ca^2+ mobilization assay was used to determine selectivity among different S1P receptors and activity on S1P receptors from species such as rat, dog, and cyno. The hS1P1 receptor internalization assay was performed using a U2OS cell line expressing hS1P1-eGFP chimeric protein (Thermo Scientific, Soeborg, Denmark). Upon compound treatment, the hS1P1 receptor was internalized in cytoplasma and formed GFP-containing-endosomes. This event was detected by an automated microscope, ArrayScan (Thermo Scientific Cellomics, Pittsburg), and the degree of receptor internalization is quantitated by counting green fluorescent GFP-containing endosomes per cell. In this assay, hS1P1-eGFP expressing U2OS cells were starved in serum free media for two hours prior to compound treatment. Then compounds were incubated with the starved cells at 37° C. for one hour. Subsequently, compound-treated cells were fixed using 4% formaldehyde, and the nuclei were stained using Hoechst. Then the cells were imaged in ArrayScan. The potency and efficacy of the compounds were determined by plotting the number of green fluorescent GFP-containing endosomes per cell against corresponding compound concentration.

T1 sequence (P21453 whole entry): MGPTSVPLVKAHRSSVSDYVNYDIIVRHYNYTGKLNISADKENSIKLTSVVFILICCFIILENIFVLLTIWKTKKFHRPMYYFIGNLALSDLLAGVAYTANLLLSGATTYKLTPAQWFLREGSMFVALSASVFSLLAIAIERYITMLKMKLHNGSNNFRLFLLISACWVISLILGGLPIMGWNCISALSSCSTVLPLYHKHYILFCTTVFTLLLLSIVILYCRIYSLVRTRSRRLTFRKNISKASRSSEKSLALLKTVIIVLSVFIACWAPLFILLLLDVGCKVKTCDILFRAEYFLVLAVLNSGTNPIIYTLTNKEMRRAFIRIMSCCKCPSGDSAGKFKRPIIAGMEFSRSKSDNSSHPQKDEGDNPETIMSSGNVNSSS

`CS(=O)(=O)NCCc1ccc(-c2nc3ccc(C4(c5ccccc5)CC4)nc3s2)c(F)c1` [Example 61, N-(2-(3-fluoro-4-(5-(1-phenylcyclopropyl)[1,3]thiazolo[5,4-b]pyridin-2-yl)phenyl)ethyl)methanesulfonamide] showed an Emax of 491% and an EC50 of 2490 nM.
Molecule `O=C(O)C1CN(Cc2ccc(-c3nc4ccc(C5(c6ccccn6)CC5)cc4s3)c(F)c2)C1` [Example 62, 1-((3-fluoro-4-(6-(1-(pyridine-2-yl)cyclopropyl)benzo[d]thiazol-2-yl)-phenyl)methyl)azetidine-3-carboxylic acid] has an Emax of 98% and an EC50 of 3710 nM.
`Cc1cc(-c2nc3ccc(C4(c5ccccc5)CC4)nc3s2)cc(C)c1OC[C@H](O)CO` [Example 67, (R)-3-(2,6-dimethyl-4-(5-(1-phenylcyclopropyl)thiazolo[5,4-b]pyridin-2-yl)phenoxy)propane-1,2-diol] was tested, and the Emax was 125% and the EC50 was 70.4 nM.
`O=C(O)[C@@H]1C[C@@H](Oc2ccc(-c3nc4ccc(C5(c6ccccc6)CC5)nc4s3)cc2)CN1` [Example 72, (2S,4R)-4-(4-(5-(1-phenylcyclopropyl)thiazolo[5,4-b]pyridin-2-yl)phenoxy)pyrrolidine-2-carboxylic acid] was tested, and the Emax was 133% and the EC50 was 45.1 nM.
In the case of `O=C(O)CC1CN(Cc2ccc(-c3nc4ccc(C5(c6ccccc6)CC5)nc4s3)c(F)c2)C1` [Example 79, 2-(1-(3-fluoro-4-(5-(1-phenylcyclopropyl)thiazolo[5,4-b]pyridin-2-yl)-benzyl)azetidin-3-yl)acetic acid], the Emax is reported as 150% and the EC50 is reported as 38.4 nM.
With `c1ccc(C2(c3ccc4nc(-c5ccc6c(c5)CCNC6)sc4n3)CC2)cc1` [Example 80, 5-(1-phenylcyclopropyl)-2-(1,2,3,4-tetrahydroisoquinolin-6-yl)thiazolo-[5,4-b]pyridine] the Emax was 148% and the EC50 was 563 nM.
Work on `O=C(O)CN1CCc2cc(-c3nc4ccc(C5(c6ccccc6)CC5)nc4s3)ccc2C1` [Example 82, 2-(6-(5-(1-phenylcyclopropyl)thiazolo[5,4-b]pyridin-2-yl)-3,4-dihydroisoquinolin-2(1H)-yl)acetic acid] yielded an Emax of 106% and an EC50 of 46.1 nM.
In the case of `O=C(O)COCc1ccc(-c2nc3ccc(C4(c5ccccc5)CC4)nc3s2)c(F)c1` [Example 85, 2-(3-fluoro-4-(5-(1-phenylcyclopropyl)thiazolo[5,4-b]pyridin-2-yl)benzyloxy)acetic acid], the Emax is reported as 88% and the EC50 is reported as 1270 nM.
Work on `C[C@H](CC(=O)O)NCc1ccc(-c2nc3ccc(C4(c5ccccc5)CC4)nc3s2)c(F)c1` [Example 91, (R)-3-(3-fluoro-4-(5-(1-phenylcyclopropyl)thiazolo[5,4-b]pyridin-2-yl)benzylamino)butanoic acid hydrochloride] yielded an Emax of 131% and an EC50 of 32.7 nM.
Molecule `O=C(O)c1cn(Cc2ccc(-c3nc4ccc(C5(c6ccccc6)CC5)nc4s3)c(F)c2)cn1` [Example 96, 1-(3-fluoro-4-(5-(1-phenylcyclopropyl)thiazolo[5,4-b]pyridin-2-yl)benzyl)-1H-imidazole-4-carboxylic acid hydrochloride] has an Emax of 105% and an EC50 of 10.9 nM.
`O=C(O)c1cnn(Cc2ccc(-c3nc4ccc(C5(c6ccccc6)CC5)nc4s3)c(F)c2)c1` [Example 98, 1-(3-fluoro-4-(5-(1-phenylcyclopropyl)thiazolo[5,4-b]pyridin-2-yl)benzyl)-1H-pyrazole-4-carboxylic acid hydrochloride] gave an Emax of 93% and an EC50 of 44.9 nM.
In the case of `O=C(c1ccc(-c2nc3ccc(C4(c5ccccc5)CC4)nc3s2)c(F)c1)N1CCC1` [Example 105, 2-(4-(1-azetidinylcarbonyl)-2-fluorophenyl)-5-(1-phenylcyclopropyl)-[1,3]thiazolo[5,4-b]pyridine], the Emax is reported as 63% and the EC50 is reported as 3330 nM.
Work on `CN(CCO)C(=O)c1ccc(-c2nc3ccc(C4(c5ccccc5)CC4)nc3s2)c(F)c1` [Example 109, 3-fluoro-N-(2-hydroxyethyl)-N-methyl-4-(5-(1-phenylcyclopropyl)-[1,3]thiazolo[5,4-b]pyridin-2-yl)benzamide] yielded an Emax of 41% and an EC50 of 2350 nM.
In the case of `O=C(NC1CC1)c1ccc(-c2nc3ccc(C4(c5ccccc5)CC4)nc3s2)c(F)c1` [Example 113, N-cyclopropyl-3-fluoro-4-(5-(1-phenylcyclopropyl)[1,3]thiazolo[5,4-b]pyridin-2-yl)benzamide], the Emax is reported as 55% and the EC50 is reported as 732 nM.
`O=C(Nc1ccc(-c2nc3ccc(C4(c5ccccc5)CC4)nc3s2)c(F)c1)C(F)(F)F` [Example 118, 2,2,2-trifluoro-N-(3-fluoro-4-(5-(1-phenylcyclopropyl)[1,3]thiazolo[5,4-b]pyridin-2-yl)phenyl)acetamide] gave an Emax of 111% and an EC50 of 298 nM.
For `CNc1ccc(-c2nc3ccc(C4(c5ccccc5)CC4)nc3s2)c(F)c1` [Example 121, 3-fluoro-N-methyl-4-(5-(1-phenylcyclopropyl)[1,3]thiazolo[5,4-b]pyridin-2-yl)aniline], the Emax was 125% and the EC50 was 777 nM.
Molecule `O=C(O)CCS(=O)(=O)Nc1ccc(-c2nc3ccc(C4(c5ccccc5)CC4)nc3s2)c(F)c1` [Example 124, 3-((3-fluoro-4-(5-(1-phenylcyclopropyl)[1,3]thiazolo[5,4-b]pyridin-2-yl)phenyl)sulfamoyl)propanoic acid] has an Emax of 131% and an EC50 of 946 nM.
For `N[C@H](CC(=O)O)C(=O)Nc1ccc(-c2nc3ccc(C4(c5ccccc5)CC4)nc3s2)c(F)c1` [Example 126, N-(3-fluoro-4-(5-(1-phenylcyclopropyl)[1,3]thiazolo[5,4-b]pyridin-2-yl)phenyl)-D-alpha-asparagine TFA salt], the Emax was 100% and the EC50 was 0.6 nM.
For `O=C(O)[C@H]1C[C@@H](Nc2ccc(-c3nc4ccc(C5(c6ccccc6)CC5)nc4s3)c(F)c2)C1` [Example 130, cis-3-((3-fluoro-4-(5-(1-phenylcyclopropyl)[1,3]thiazolo[5,4-b]pyridin-2-yl)phenyl)amino)cyclobutanecarboxylic acid], the Emax was 89% and the EC50 was 11.6 nM.
Work on `O=C(O)C[C@H](O)C(=O)Nc1ccc(-c2nc3ccc(C4(c5ccccc5)CC4)nc3s2)c(F)c1` [Example 133, (3S)-4-(3-fluoro-4-(5-(1-phenylcyclopropyl)thiazolo[5,4-b]pyridin-2-yl)phenylamino)-3-hydroxy-4-oxobutanoic acid] yielded an Emax of 133% and an EC50 of 2.2 nM.
`c1ccc(C2(c3ccc4nc(-c5ccc6[nH]ccc6c5)sc4n3)CC2)cc1` [Example 136, 2-(1H-indol-5-yl)-5-(1-phenylcyclopropyl)thiazolo[5,4-b]pyridine] was tested, and the Emax was 101% and the EC50 was 191 nM.
`CC(=O)NCCc1ccc(-c2nc3ccc(C4(c5ccccc5)CC4)nc3s2)c(F)c1` [Example 150, N-(2-(3-fluoro-4-(5-(1-phenylcyclopropyl)[1,3]thiazolo[5,4-b]pyridin-2-yl)phenyl)ethyl)acetamide] gave an Emax of 155% and an EC50 of 184 nM.
